Molecular target: dopamine D1 receptor (Rattus norvegicus, UniProt P18901)
Test: competition autoradiography with 3H-SCH […] in rat brain slices

Chain of dopamine D1 receptor (P18901 whole entry): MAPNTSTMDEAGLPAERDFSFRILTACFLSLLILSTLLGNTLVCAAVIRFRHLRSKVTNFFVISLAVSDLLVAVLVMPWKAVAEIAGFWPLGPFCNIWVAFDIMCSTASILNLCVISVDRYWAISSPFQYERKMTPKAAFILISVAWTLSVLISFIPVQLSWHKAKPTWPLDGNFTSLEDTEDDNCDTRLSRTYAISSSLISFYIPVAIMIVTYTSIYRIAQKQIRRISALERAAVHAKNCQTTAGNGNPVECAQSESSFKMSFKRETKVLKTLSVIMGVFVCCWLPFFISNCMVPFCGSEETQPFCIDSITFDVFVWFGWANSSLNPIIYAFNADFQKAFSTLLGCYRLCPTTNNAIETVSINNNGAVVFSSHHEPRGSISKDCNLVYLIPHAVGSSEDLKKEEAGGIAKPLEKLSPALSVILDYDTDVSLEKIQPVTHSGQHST

CN1CCc2cc(Cl)c(O)cc2C(c2cccc(NC[C@H](F)[C@@H](O)[C@H](O)[C@H](O)CO)c2)C1 (stereo partly drawn) [compound 7, 7-chloro-8-hydroxy-3-methyl-l-(3’-fluorodeoxyglucaminophenyl)-2,3,4,5-tetrahydro-lH-3-benzazepine]
Ki: 19.5 nM

Reference: publication PMC4469266 (Bioorganic & medicinal chemistry letters, 2015)
